In US20160002273A1, “THIENO[3,2-D]PYRIMIDINE-6-CARBOXAMIDES AND ANALOGUES AS SIRTUIN MODULATORS” (GLAXOSMITHKLINE LLC, priority 2013, published 2016):
≈ marks a conversion by molar mass, not a printed value. Read-outs that look alike come from different tables or passages of the source.

Key:
SIRT1 [1] = molecular target: T1, SIRT1 (Homo sapiens, UniProt Q96EB6); conditions: at 1 mM; Galli et al. (2012); cited from earlier work
T1 sequence (Q96EB6 1-747): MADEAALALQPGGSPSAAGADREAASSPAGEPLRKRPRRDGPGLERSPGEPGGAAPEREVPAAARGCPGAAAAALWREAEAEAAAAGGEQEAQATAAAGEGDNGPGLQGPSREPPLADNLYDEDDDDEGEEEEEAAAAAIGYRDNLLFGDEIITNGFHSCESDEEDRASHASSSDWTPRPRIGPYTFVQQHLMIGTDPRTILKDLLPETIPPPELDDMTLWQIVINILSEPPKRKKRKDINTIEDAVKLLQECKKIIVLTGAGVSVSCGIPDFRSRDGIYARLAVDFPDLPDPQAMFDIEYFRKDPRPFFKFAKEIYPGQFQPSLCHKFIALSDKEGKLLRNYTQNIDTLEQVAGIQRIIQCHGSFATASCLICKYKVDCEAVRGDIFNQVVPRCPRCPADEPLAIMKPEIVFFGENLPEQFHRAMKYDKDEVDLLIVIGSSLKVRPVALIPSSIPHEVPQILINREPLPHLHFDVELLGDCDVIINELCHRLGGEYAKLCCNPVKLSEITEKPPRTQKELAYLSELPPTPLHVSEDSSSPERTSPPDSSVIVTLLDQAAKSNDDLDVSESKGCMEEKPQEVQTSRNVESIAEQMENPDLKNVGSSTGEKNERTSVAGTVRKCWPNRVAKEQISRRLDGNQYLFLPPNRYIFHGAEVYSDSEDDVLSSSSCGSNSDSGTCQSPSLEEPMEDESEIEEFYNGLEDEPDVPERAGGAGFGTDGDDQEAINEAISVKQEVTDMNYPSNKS

SIRT2 [2] = molecular target: T2, SIRT2 (Homo sapiens, UniProt Q8IXJ6); conditions: at 1 mM; Galli et al. (2012); cited from earlier work
T2 sequence (Q8IXJ6 1-389): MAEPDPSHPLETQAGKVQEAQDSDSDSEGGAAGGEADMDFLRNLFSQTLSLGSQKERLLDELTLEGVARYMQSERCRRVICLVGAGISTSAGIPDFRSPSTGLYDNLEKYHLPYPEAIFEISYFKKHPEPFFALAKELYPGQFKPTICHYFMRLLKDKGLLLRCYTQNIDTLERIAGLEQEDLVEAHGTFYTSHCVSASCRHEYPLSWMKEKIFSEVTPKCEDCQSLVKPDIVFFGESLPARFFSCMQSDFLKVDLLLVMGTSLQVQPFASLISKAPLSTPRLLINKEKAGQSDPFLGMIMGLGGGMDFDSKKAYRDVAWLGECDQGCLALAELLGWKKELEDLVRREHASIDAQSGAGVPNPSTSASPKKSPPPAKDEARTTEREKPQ

[3] = tested on: sirtuin mediated deacetylation of acetyl-p65; assay: Acetyl-p65 assay in U2OS cells (AlphaScreen); type: cell-based; conditions: FIG. 6
Protocol: In certain embodiments, U2OS cells were counted by hemocytometer and diluted to a concentration of 1.5×10^5 cell/ml. BacMam p65 and BacMam p300-HAT viruses were added to the diluted cells at 1% and 1% (vol/vol). 40 μl aliquots of the cell suspensions containing the viruses were plated onto a 384 well plate with a multi-drop dispenser. After 7 hours, a 2-fold serial dilution of Compounds 25, 28 and Compound 4, hereafter referred to as the test compounds, was carried out in DMSO. The test compounds were subsequently diluted with medium (20-fold) in an intermediate compound plate, and 4 μL of each test compound was transferred by a liquid handler from the intermediate plate to a cell plate. 24 hours post viral transduction, the medium in the cell plate was removed by inverting and flicking the plate, and blotting the plate with paper towels. 30 μl of lysis buffer (25 mM HEPES pH 7.4, 0.5% Triton X-100, 1 mg/ml Dextran 500, 0.1% BSA, 300 mM NaCl, 2 mM MgCl2, 1×protease inhibitor cocktail) was added to each well to lyse the cells. After incubation of the cells with lysis buffer for 30 minutes at room temp, 10 μl and 3 μl aliquots of the cell lysates were transferred to assay plates, and the assay plate containing 3 μl aliquot of cell lysates was diluted with an additional 7 μl of lysis buffer to obtain a final volume of 10 μl. Acetyl-p65 and total p65 protein in cell lysates were measured using the AlphaScreen assay format (PerkinElmer). The antibodies used to detect acetyl-p65 protein were biotinylated anti-HA antibody (Roche, 12158167001) and anti-acetylated K310-p65 antibody (Abcam, ab19870). The antibodies used to detect total p65 protein were biotinylated anti-HA antibody (Roche, 12158167001) and anti-p65 antibody (Santa Cruz, sc109). […] After incubating the plates for another 2 hrs in the dark, the plates were read by a PHERAstar microplate reader. […]

[4] = Kinetic solubility by chemi-luminescent nitrogen detection (CLND); type: physicochemical; conditions: aqueous buffer, kinetic from dmso stock, DMSO stock incubated 1 hr in phosphate buffered saline pH 7.4, filtered
SIRT1 [5] = molecular target: T1, SIRT1; assay: SIRT1 deacetylation of Trp 5-mer peptide, OAADPr mass spec assay
Protocol: (§1) All assays were performed at room temperature in reaction buffer (50 mM HEPES, pH 7.5, 150 mM NaCl, 1 mM DTT, 0.05% BSA). […] To prepare the assays for analysis, 20 μL of reaction volume was mixed in 80 μL of 50:50 acetonitrile:methanol mixture. […] Peak data was integrated using RapidFire Integrator software (Agilent, Santa Clara, Calif.).

[6] = HPLC based lipophilicity assay (CHI LogD); type: physicochemical; conditions: CHI values by reverse phase HPLC transformed to a LogD scale
SIRT2 [7] = molecular target: T2, SIRT2; assay: SIRT2 deacetylation of Trp 5-mer peptide, OAADPr mass spec assay; type: biochemical; design: His-SIRT2(1-389)
SIRT3 = molecular target: T3, SIRT3 (Homo sapiens, UniProt Q9NTG7); assay: SIRT3 deacetylation of Trp 5-mer peptide, OAADPr mass spec assay
T3 sequence (Q9NTG7 102-399): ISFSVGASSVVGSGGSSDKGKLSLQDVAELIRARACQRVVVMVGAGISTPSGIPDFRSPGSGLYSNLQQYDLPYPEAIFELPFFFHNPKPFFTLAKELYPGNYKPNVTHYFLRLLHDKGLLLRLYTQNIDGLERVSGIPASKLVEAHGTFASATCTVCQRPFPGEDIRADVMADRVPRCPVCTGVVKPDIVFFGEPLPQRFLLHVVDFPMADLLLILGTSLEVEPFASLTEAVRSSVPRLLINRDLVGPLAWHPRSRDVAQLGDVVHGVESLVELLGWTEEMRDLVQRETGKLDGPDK
Protocol: as §1

SIRT1/2/3 = SIRT1/2/3 biochemical assay, statements spanning all three enzymes; design: species or system human; conditions: for SIRT1/2/3 inhibitory activity, in words: across SIRT1, SIRT2 and SIRT3
[8] = IC50 (μM) SIRT1, Trp 5-mer peptide and NAD at KM, mean of at least three determinations
[9] = Trp SIRT1_IC50, Trp 5-mer peptide, class symbols
[10] = Trp 5-mer peptide and NAD at KM, mean of at least three determinations, read-out: IC50 (μM) SIRT2
[11] = Trp 5-mer peptide, class symbols, read-out: Trp SIRT2_IC50
[12] = Trp SIRT3_IC50, Trp 5-mer peptide, class symbols
[13] = read-out: IC50 (μM) SIRT1, Trp 5-mer peptide and NAD at KM, mean of at least three determinations
[14] = IC50 (μM) SIRT3, Trp 5-mer peptide and NAD at KM, mean of at least three determinations
[15] = Trp SIRT2_IC50, Trp 5-mer peptide, class symbols
[16] = read-out: IC50 (μM) SIRT3, Trp 5-mer peptide and NAD at KM, mean of at least three determinations

IC50 (SIRT1 [5]; [9]) [µM] | IC50 (SIRT2 [7]; [10]) [µM] | IC50 (SIRT2 [7]; [11]) [µM] | IC50 (SIRT3; [12]) [µM] | SMILES | also measured
– | – | – | – | c1cncc(-c2c[nH]nn2)c1 [3-(1H-1,2,3-triazol-4-yl)pyridine] | SIRT1 activity remaining (SIRT1 [1]): 88%; SIRT2 activity remaining (SIRT2 [2]): 92%
– | – | – | – | NC(=O)C1CCCc2c1[nH]c1ccc(Cl)cc21 (stereo not shown) [4, EX-527, EX-527, reference compound] | inhibition of sirtuin mediated deacetylation of acetyl-p65 [3]: inhibit
< 1 | 0.005 | < 1 | < 1 | CCNC(=O)c1cccc(C(=O)NCCC2CCN(c3ncnc4cc(C(N)=O)sc34)CC2)c1 [Compound 11a, N^1-(2-(1-(6-carbamoylthieno[3,2-d]pyrimidin-4-yl)piperidin-4-yl)ethyl)-N^3-ethylisophthalamide] | solubility at 1 hr [4]: 19 µM (≈ 9.13 µg/mL); IC50 (SIRT1 [5]; [8]): 0.014 µM; LogD [6]: 2.09; IC50 (SIRT3; SIRT3 IC50, as stated in text): 0.001 µM
– | – | – | – | CCNC(=O)c1ccc(C(=O)NCCC2CCN(c3ncnc4cc(C(N)=O)sc34)CC2)s1 [Compound 11c] | solubility at 1 hr [4]: 9 µM (≈ 4.38 µg/mL); LogD [6]: 2.09
< 1 | 0.005 | < 1 | – | CCNC(=O)c1ccc(C(=O)NCCN2CCN(c3ncnc4cc(C(N)=O)sc34)CC2)s1 [Compound 11d] | solubility at 1 hr [4]: 65 µM (≈ 31.7 µg/mL); IC50 (SIRT1 [5]; [13]): 0.031 µM; LogD [6]: 1.32
> 10 | > 50 | > 10 | > 10 | NC(=O)c1cc2ncnc(Cl)c2s1 [Compound 14, 4-chlorothieno[3,2-d]pyrimidine-6-carboxamide] | SIRT1/2/3 inhibitory activity, in words (SIRT1/2/3): not conserved; IC50 (SIRT1 [5]; [8]): > 50 µM; IC50 (SIRT3; [14]): > 50 µM
> 10 | 1.4 | – | 1 to 10 | NC(=O)c1cc2ncnc(N3CCCCC3)c2s1 [Compound 21, 4-(Piperidin-1-yl)thieno[3,2-d]pyrimidine-6-carboxamide] | SIRT1/2/3 inhibitory activity, in words (SIRT1/2/3): micromolar levels; IC50 (SIRT1 [5]; [13]): 15 µM; IC50 (SIRT2 [7]; [15]): 1 to 10 µM; IC50 (SIRT3; [16]): 8.6 µM
> 10 | 49 | – | > 10 | CCNc1ncnc2cc(C(N)=O)sc12 [Compound 22, 4-(Ethylamino)thieno[3,2-d]pyrimidine-6-carboxamide] | SIRT1/2/3 inhibitory activity, in words (SIRT1/2/3): not conserved; IC50 (SIRT1 [5]; [8]): > 50 µM; IC50 (SIRT2 [7]; [15]): > 10 µM; IC50 (SIRT3; [14]): > 50 µM
< 1 | 0.3 | < 1 | 1 to 10 | CC(C)(C)C(=O)NCCC1CCN(c2nccc3cc(C(N)=O)sc23)CC1 [Compound 38, 7-(4-(2-pivalamidoethyl)piperidin-1-yl)thieno[2,3-c]pyridine-2-carboxamide] | fold reduction in SIRT1/2/3 potency (SIRT1/2/3; compared to Compound 28, range across the three enzymes): 30-63 fold; IC50 (SIRT1 [5]; [13]): 0.49 µM; IC50 (SIRT3; [16]): 2.1 µM
> 10 | – | 1 to 10 | > 10 | NCCC1CCN(c2ncnc3ccsc23)CC1 [Compound 188, 2-(1-(thieno[3,2-d]pyrimidin-4-yl)piperidin-4-yl)ethanamine 2,2,2-trifluoroacetate] | –
> 10 | – | > 10 | > 10 | CCNC(=O)c1cccc(C(=O)NCCN2CCN(c3ncnc4ccsc34)CC2)c1 [Compound 190] | –
> 10 | – | > 10 | > 10 | NCCNC(=O)c1cccc(C(=O)NCCN2CCN(c3ncnc4ccsc34)CC2)c1 [Compound 191] | –
> 10 | – | > 10 | > 10 | O=C(O)c1cc2ncnc(N3CCC(CN4CCCC4)CC3)c2s1 [Compound 192] | –
> 10 | – | > 10 | > 10 | CCNC(=O)c1ccc(C(=O)NCCC2CCN(c3ncnc4ccsc34)CC2)s1 [Compound 193] | –
1 to 10 | – | 1 to 10 | 1 to 10 | CCNC(=O)c1ccc(C(=O)NCCC2CCN(c3ncnc4cc(C(=O)NCC)sc34)CC2)s1 [Compound 194] | –

SMILES | IC50 (SIRT1 [5]; [9]) [µM] | IC50 (SIRT2 [7]; [10]) [µM] | IC50 (SIRT2 [7]; [11]) [µM] | IC50 (SIRT3; [12]) [µM] | also measured
CCNC(=O)c1cccc(C(=O)NCCN2CCN(c3ncnc4cc(C(N)=O)sc34)CC2)c1 [Compound 11b] | < 1 | 0.01 | < 1 | – | solubility at 1 hr [4]: 220 µM (≈ 106 µg/mL); IC50 (SIRT1 [5]; [13]): 0.067 µM; LogD [6]: 1.45
CC(=S)NCCC1CCN(c2ncnc3cc(C(N)=O)sc23)CC1 [Compound 25, 4-(4-(2-ethanethioamidoethyl)piperidin-1-yl)thieno[3,2-d]pyrimidine-6-carboxamide] | < 1 | 0.03 | – | – | IC50 (SIRT1 [5]; [13]): 0.056 µM; IC50 (SIRT2 [7]; [15]): < 1 µM; inhibition of sirtuin mediated deacetylation of acetyl-p65 [3]: inhibit
CC(C)(C)OC(=O)NCCC1CCN(c2ncnc3cc(C(=O)O)sc23)CC1 [Compound 189, 4-(4-(2-((tert-butoxycarbonyl)amino)ethyl)piperidin-1-yl)thieno[3,2-d]pyrimidine-6-carboxylic acid] | > 10 | – | > 10 | > 10 | –
